Columns and labels:
[1] = biological target: L-lactate dehydrogenase B chain (Homo sapiens) (UniProt P07195); assay: Inhibition of human LDHB assessed as reduction in lactate production using pyruvate as substrate at 10 uM in presence of NADH by spectrophotometric analysis relative to control
[2] = biological target: T1, L-lactate dehydrogenase A chain (Homo sapiens, UniProt P00338); assay: Inhibition of human LDHA assessed as reduction in lactate production using pyruvate as substrate at 10 uM in presence of NADH by spectrophotometric analysis relative to control
[3] = biological target: T1, L-lactate dehydrogenase A chain; assay: Non-competitive inhibition of human LDHA assessed as reduction in lactate production using pyruvate as substrate in presence of NADH by Lineweaver-Burk plot analysis

Sequence of L-lactate dehydrogenase B chain (Homo sapiens) (P07195 2-334 limits assumed): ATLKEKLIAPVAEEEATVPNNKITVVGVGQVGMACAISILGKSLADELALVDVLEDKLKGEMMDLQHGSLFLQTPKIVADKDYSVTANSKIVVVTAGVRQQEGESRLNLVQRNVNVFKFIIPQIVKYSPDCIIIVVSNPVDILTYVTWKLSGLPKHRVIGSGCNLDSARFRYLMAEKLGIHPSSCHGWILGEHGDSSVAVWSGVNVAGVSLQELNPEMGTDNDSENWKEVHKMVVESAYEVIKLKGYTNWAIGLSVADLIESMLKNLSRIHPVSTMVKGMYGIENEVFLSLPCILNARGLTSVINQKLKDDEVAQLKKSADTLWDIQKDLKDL

| Compound | inhibition [1] [%] | inhibition [2] [%] | Ki [3] [µM] |
| --- | --- | --- | --- |
| CCCCCc1cc(O)c2c(c1)OC(C)(C)c1ccc(C)cc1-2 | < 50 | – | – |
| CCCc1cc2c(c(O)c1C(=O)O)C=CC(C)(CCC=C(C)C)O2 (centres undefined) | < 50 | – | – |
| CCCc1cc2c(c(O)c1C(=O)O)[C@@H]1C=C(C)CC[C@H]1C(C)(C)O2 | < 50 | – | – |
| CCCCCc1cc2c(c(O)c1C(=O)O)[C@@H]1C=C(C)CC[C@H]1C(C)(C)O2 [DELTA9-TETRAHYDROCANNABINOLIC ACID A] | < 50 | > 50 | 6.5 |
| C=C(C)[C@@H]1CCC(C)=C[C@H]1c1c(O)cc(CCC)c(C(=O)O)c1O | < 50 | – | – |
| CCCCCc1cc(O)c2c(c1)OC(C)(CCC=C(C)C)C=C2 (centres undefined) [CANNABICHROMENE] | < 50 | > 50 | 8.5 |
| CC(C)=CCC/C(C)=C/Cc1c(O)cc(C)cc1O | < 50 | – | – |
| CCCCCc1cc(O)c2c(c1)OC(C)(C)[C@@H]1CCC(C)=C[C@@H]21 [DRONABINOL] | < 50 | – | 14 |
| CCCCCc1cc(O)c(C/C=C(\C)CCC=C(C)C)c(O)c1 | < 50 | – | – |
| C=C(C)[C@@H]1CCC(C)=C[C@H]1c1c(O)cc(CCC)cc1O | < 50 | – | – |
| CCCCCc1cc2c(c(O)c1C(=O)O)C=CC(C)(CCC=C(C)C)O2 (centres undefined) | < 50 | – | – |
| CCCc1cc(O)c(C/C=C(\C)CCC=C(C)C)c(O)c1 | < 50 | – | – |
| CCCc1cc(O)c2c(c1)OC(C)(C)[C@@H]1CCC(C)=C[C@@H]21 | < 50 | – | – |
| C=C(C)[C@@H]1CCC(C)=C[C@H]1c1c(O)cc(CCCCC)cc1O [CANNABIDIOL] | < 50 | – | 24 |
| C=C(C)[C@@H]1CCC(C)=C[C@H]1c1c(O)cc(CCCCC)c(C(=O)O)c1O | < 50 | – | – |
| CCCCCc1cc2c(c(O)c1C(=O)O)-c1cc(C)ccc1C(C)(C)O2 | < 50 | – | – |
| CCCCCc1cc(O)c(C/C=C(\C)CCC=C(C)C)c(O)c1C(=O)O | < 50 | – | – |
| CCCc1cc(O)c(C/C=C(\C)CCC=C(C)C)c(O)c1C(=O)O | < 50 | – | – |

From ChEMBL document CHEMBL4842310, “Cannabichromene and Δ9-Tetrahydrocannabinolic Acid Identified as Lactate Dehydrogenase-A Inhibitors by in Silico and in Vitro Screening” (J Nat Prod, 2021)
